Laboratory results reported in US20260053811A1, “METHODS OF TREATING HYPERTENSION IN OBESE SUBJECTS” (Mineralys Therapeutics, Inc., priority 2022, published 2026).

Test system: hypertensive subjects
Experiment: Seated automated office blood pressure (AOBP) in randomized, placebo-controlled, dose-ranging study
Format: in vivo, human
Details: 100 mg QD; for Mean Automated Office-Measured Systolic Blood Pressure at Wk 8 / Mean Change from Baseline at Week 8 in Automated Office-Measured Systolic Blood Pressure / Automated Office-Measured Diastolic Blood Pressure, Week 8, mean / Change from Baseline at Week 8 in Automated Office-Measured Diastolic Blood Pressure, mean: Part 2
Protocol: A randomized, double-blinded, placebo-controlled, dose-ranging, multicenter study was conducted to evaluate the effect of orally administered Compound A HBr on blood pressure for the treatment of hypertension in male and female subjects ≥18 years of age.
The study consists of two parts. For enrollment into Part 1 of the study, a subject's value of plasma renin activity (PRA) must be ≤1 ng/mL/h based on morning measurement. If the value of PRA >1 ng/mL/h based on morning measurement, then subjects may be eligible to enter Part 2 of the study.
For Part 1, 163 enrolled subjects ≥18 years of age were randomized into 6 equal treatment groups (1:1:1:1:1:1) to 12.5 mg BID, 25 mg BID, 12.5 mg QD, 50 mg QD, 100 mg QD, or placebo. After a review of interim clinical data, the 2 lowest dose levels (12.5 mg QD and 12.5 mg BID) were stopped for future randomization due to a lack of consistent meaningful reduction of blood pressure, but the patients randomized to that point remained in the study through completion. Thus, after the review of interim clinical data, subjects were randomized into 4 equal treatment groups (1:1:1:1) to 25 mg BID, 50 mg QD, 100 mg QD, or placebo.
For Part 2, 36 enrolled subjects ≥18 years of age were randomized (5:1) to either 100 mg QD Compound A HBr or placebo such that the Compound A HBr treatment group consisted of approximately 30 subjects and the placebo treatment group will consist of approximately 6 subjects.
Subjects orally administered the assigned study drug (Compound A HBr or placebo) according to the assigned dosing regimen for 8 weeks beginning on Study Day 1. All subjects in Part 1 (regardless of dosing group) received BID dosing to preserve the integrity of the blind; active drug is administered as the morning dose for all QD dose groups. Subjects returned to the research facility or were seen by the clinical investigator or approved home health care professional at the end of Study Weeks 1, 2, 3, 4, 5, 6, 7, and 8 (±2 days) for protocol-defined efficacy and safety assessments and procedures, assessment of adverse events (AEs), and confirmation of compliance with study drug usage. Subjects also completed a telephone visit and blood pressure (BP) check at home approximately 3 days post last dose of study drug. Subjects attended up to 14 full clinic visits, including a pre-Screening visit, a Screening/start of Placebo Run-in visit, a second visit during Placebo Run-in, a clinic visit to initiate the ABPM procedure, a Randomization visit, 8 weekly visits during double-blind treatment, and an end-of-study visit scheduled 4 weeks after the last study treatment for final efficacy and safety assessments.
An automated oscillometric sphygmomanometer device was used to measure the subjects' systolic and diastolic blood pressure in office after approximately 5 minutes of rest in the seated position.
The primary endpoint is the change in office-measured (mean of last 2 of 5 unattended measurements using an automated oscillometric sphygmomanometer device after approximately 5 minutes of rest in the seated position) systolic blood pressure (SBP) from baseline to the end of Study Week 8.
Secondary endpoints of this study were: • (a) Change in 24-hour ambulatory blood pressure monitoring (ABPM) parameters (systolic and diastolic) from baseline to the end of Study Week 7. • (b) Change in office-measured SBP from baseline to the end of Study Weeks 1, 2, 3, 4, 5, 6, and 7. • (c) Change in office-measured diastolic blood pressure (DBP) from baseline to the end of Study Weeks 1, 2, 3, 4, 5, 6, 7, and 8. • (d) Proportion of subjects who achieve office-measured BP of ≤130/80 mm Hg by the end of Study Week 8.

[1] = Part 1, Thiazide Diuretic Use at Baseline No
[2] = Part 1, Thiazide Diuretic Use at Baseline Yes
[3] = Systolic Blood Pressure Tertile at Baseline High
[4] = Systolic Blood Pressure Tertile at Baseline Low
[5] = Systolic Blood Pressure Tertile at Baseline Middle
[6] = Thiazide Diuretic Use at Baseline No
[7] = Thiazide Diuretic Use at Baseline Yes

## CC(=O)N[C@H]1CC[C@H](NC(=O)CN2CCN(c3nncc(-c4ccc(C)cc4)n3)CC2)CC1 [Compound A HBr]
[1]
  Mean (SD) Change from Baseline at Week 8 in Automated Office-Measured Diastolic Blood Pressure: −4.00 (6.33) mmHg
  Mean (SD) Change from Baseline at Week 8 in Automated Office-Measured Systolic Blood Pressure: −9.15 (9.27) mmHg
[2]
  Automated Office-Measured Diastolic Blood Pressure, Week 8, Mean (SD): 73.40 (8.98) mmHg
  Mean (SD) Automated Office-Measured Systolic Blood Pressure at Wk 8: 128.27 (16.26) mmHg
  Mean (SD) Change from Baseline at Week 8 in Automated Office-Measured Diastolic Blood Pressure: −6.43 (8.79) mmHg
  Mean (SD) Change from Baseline at Week 8 in Automated Office-Measured Systolic Blood Pressure: −17.37 (14.74) mmHg
ACEi/ARB No
  Mean Automated Office-Measured Systolic Blood Pressure at Wk 8: 131.00 mmHg
  Mean Change from Baseline at Week 8 in Automated Office-Measured Systolic Blood Pressure: −4.00 mmHg
ACEi/ARB Yes
  Mean Automated Office-Measured Systolic Blood Pressure at Wk 8: 129.24 mmHg
  Mean Change from Baseline at Week 8 in Automated Office-Measured Systolic Blood Pressure: −11.45 mmHg
AHTs 2
  Mean Automated Office-Measured Systolic Blood Pressure at Wk 8: 127.84 mmHg
  Mean Change from Baseline at Week 8 in Automated Office-Measured Systolic Blood Pressure: −10.37 mmHg
AHTs ≥3
  Mean Automated Office-Measured Systolic Blood Pressure at Wk 8: 131.82 mmHg
  Mean Change from Baseline at Week 8 in Automated Office-Measured Systolic Blood Pressure: −12.64 mmHg
Age 65-79 yr
  Mean Automated Office-Measured Systolic Blood Pressure at Wk 8: 132.81 mmHg
  Mean Change from Baseline at Week 8 in Automated Office-Measured Systolic Blood Pressure: −9.69 mmHg
Age <65 yr
  Mean Automated Office-Measured Systolic Blood Pressure at Wk 8: 120.88 mmHg
  Mean Change from Baseline at Week 8 in Automated Office-Measured Systolic Blood Pressure: −13.06 mmHg
Age ≥80 yr
  Mean Automated Office-Measured Systolic Blood Pressure at Wk 8: 123.00 mmHg
  Mean Change from Baseline at Week 8 in Automated Office-Measured Systolic Blood Pressure: −28.00 mmHg
BMI at baseline 25-30 kg/m^2
  Mean Automated Office-Measured Systolic Blood Pressure at Wk 8: 126.80 mmHg
  Mean Change from Baseline at Week 8 in Automated Office-Measured Systolic Blood Pressure: −14.60 mmHg
BMI at baseline <25 kg/m^2
  Mean Automated Office-Measured Systolic Blood Pressure at Wk 8: 130.00 mmHg
  Mean Change from Baseline at Week 8 in Automated Office-Measured Systolic Blood Pressure: −6.50 mmHg
BMI at baseline >30 kg/m^2
  Mean Automated Office-Measured Systolic Blood Pressure at Wk 8: 132.08 mmHg
  Mean Change from Baseline at Week 8 in Automated Office-Measured Systolic Blood Pressure: −8.00 mmHg
Race Black or AA
  Mean Automated Office-Measured Systolic Blood Pressure at Wk 8: 125.83 mmHg
  Mean Change from Baseline at Week 8 in Automated Office-Measured Systolic Blood Pressure: −15.83 mmHg
Race Other
  Mean Automated Office-Measured Systolic Blood Pressure at Wk 8: 130.17 mmHg
  Mean Change from Baseline at Week 8 in Automated Office-Measured Systolic Blood Pressure: −10.04 mmHg
Sex Female
  Mean Automated Office-Measured Systolic Blood Pressure at Wk 8: 127.90 mmHg
  Mean Change from Baseline at Week 8 in Automated Office-Measured Systolic Blood Pressure: −11.15 mmHg
Sex Male
  Mean Automated Office-Measured Systolic Blood Pressure at Wk 8: 132.10 mmHg
  Mean Change from Baseline at Week 8 in Automated Office-Measured Systolic Blood Pressure: −11.30 mmHg
[3]
  Mean Automated Office-Measured Systolic Blood Pressure at Wk 8: 132.36 mmHg
  Mean Change from Baseline at Week 8 in Automated Office-Measured Systolic Blood Pressure: −17.05 mmHg
[4]
  Mean Automated Office-Measured Systolic Blood Pressure at Wk 8: 124.11 mmHg
  Mean Change from Baseline at Week 8 in Automated Office-Measured Systolic Blood Pressure: −7.56 mmHg
[5]
  Mean Automated Office-Measured Systolic Blood Pressure at Wk 8: 130.60 mmHg
  Mean Change from Baseline at Week 8 in Automated Office-Measured Systolic Blood Pressure: −8.05 mmHg
[6]
  Automated Office-Measured Diastolic Blood Pressure, Week 8, mean: 68.42 mmHg
  Change from Baseline at Week 8 in Automated Office-Measured Diastolic Blood Pressure, mean: −8.13 mmHg
  Mean Automated Office-Measured Systolic Blood Pressure at Wk 8: 125.67 mmHg
  Mean Change from Baseline at Week 8 in Automated Office-Measured Systolic Blood Pressure: −12.25 mmHg
[7]
  Automated Office-Measured Diastolic Blood Pressure, Week 8, mean: 74.67 mmHg
  Change from Baseline at Week 8 in Automated Office-Measured Diastolic Blood Pressure, mean: −4.06 mmHg
